The source of these data is patent publication US20050033056A1, “Hydroxylated indole derivatives and uses thereof” (priority 2001, published 2005).

This series has as its target T1, cDNA-expressed recombinant CYP2D6 (Homo sapiens, UniProt P10635).
T1 construct: purchased Gentest Corp. (Woburn, Mass.); host or cells: insect cells (microsomal preparation)
Kind of series: Apparent Ki with recombinant CYP2D6 (bufuralol 1'-hydroxylation; Dixon plots, SNLR). The format is in vitro ADME. The conditions noted are these: for Ki: recombinant CYP2D6. The protocol:
If inhibition was detected, the inhibitory potency was determined using recombinant CYPs. Compound 1 appeared to inhibit the activities of CYP2D6 and CYP2C19. Therefore, three concentrations of S-mephenyloin (30, 80, and 200 μM) and bufuralol (5, 10, and 40 μM), and a range of concentrations (0-200 μM) of Compound 1 were used for the construction of Dixon plots and simultaneously nonlinear regression (SNLR) analyses were performed. The incubation conditions and sample preparations were the same as previously described.
3. CYP2D6-mediated bufuralol 1′-hydroxylation (Boobis et al., Bioch. Pharmacol. 34:65-71, 1985): The HPLC system was interfaced with a SCIEX API2000 triple quadrupole mass spectrometer (PE Biosystem, Foster City, Calif.). A Sulpelco Discovery C18 column (150×2.1 mm) and isocratic mobile phase was applied. The mobile phase, 10 mM ammonium acetate-acetonitrile/60:40, was run at 0.2 mL/minute. The operation of the LC/MS/MS was controlled by use of software, MacChrom (Version 1.6). The MS/MS was operated at positive ESI with 5.5 kV ionization potential and 500° C. ion source temperature. Multiple reaction monitoring (MRM) was applied for the quantification. The MRM transition ions were m/z 278→186 for 1′-hydroxybufuralol, and m/z 266→234 for the internal standard (1S) albendazole.
Data were acquired and analyzed by ChemStation (Version 6.03, Hewlett Packard, Waldbronn, Germany) for 6-, 7-, and 10-hydroxywarfarin and 6-hydroxychlorzoxazone, and MacQuan (Version 1.6, PE Biosystem, Foster City, Calif.) for 1′-hydroxybufuralol and 4′-hydroxymephenytoin. Quantification was based on peak area ratios of metabolites over the respective IS against the respective concentration of the metabolites. The standard curves were generated by linear regression with (6-, 7-, and 10-hydroxywarfarin, 1′-hydroxybufuralol, and 4′-hydroxymephenytoin) or without (6-hydroxychlorzoxazone) a weighting factor (1/x^2). The metabolic rates were determined using Excel (Microsoft Office 97, Microsoft Corporation, Redmond, Wash.) or SigmaPlot (Version 6.00, SPSS Inc. Chicago, Ill.). […]

Molecules are shown by their SMILES. Entries after “also recorded” stand apart in the source; their conditions may differ. Like-named read-outs stand apart in the source and are kept apart here.

T1 sequence (P10635 whole entry): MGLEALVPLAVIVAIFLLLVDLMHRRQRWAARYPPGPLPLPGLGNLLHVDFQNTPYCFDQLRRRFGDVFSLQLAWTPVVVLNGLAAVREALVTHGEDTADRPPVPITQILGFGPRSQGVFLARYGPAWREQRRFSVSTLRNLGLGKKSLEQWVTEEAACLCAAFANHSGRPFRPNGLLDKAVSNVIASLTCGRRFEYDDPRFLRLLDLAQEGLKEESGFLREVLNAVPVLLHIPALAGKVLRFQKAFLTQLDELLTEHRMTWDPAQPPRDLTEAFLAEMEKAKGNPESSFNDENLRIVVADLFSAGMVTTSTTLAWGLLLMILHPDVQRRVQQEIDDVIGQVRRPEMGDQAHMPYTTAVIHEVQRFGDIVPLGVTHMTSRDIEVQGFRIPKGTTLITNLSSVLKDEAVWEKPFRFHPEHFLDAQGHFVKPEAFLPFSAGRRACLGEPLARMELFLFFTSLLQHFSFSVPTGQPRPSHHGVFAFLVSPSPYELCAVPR

In the case of `CNC(=O)Cc1ccc2ccn(C3CCN(CCc4ccccc4F)CC3)c2c1` [Compound 1, N-methyl-[1-[1-(2-fluorophenethyl)piperidine-4-yl]-1H-indol-6-yl] acetamide], for the setting “Dixon plots and SNLR analyses”, the “type of inhibition of CYP2D6” value is given as “competitive inhibitor; also recorded: primarily, if not fully, competitive”. Besides, the Ki is, setting by setting: (Dixon plots, bufuralol 5, 10, 40 μM, read-out: apparent Ki, CYP2D6, estimated by Dixon plots) about 20 µM; (SNLR, competitive inhibition model, read-out: apparent Ki, CYP2D6 inhibition, determined by SNLR) 15 µM.
